Data taken from ChEMBL document CHEMBL4219105, “Novel polyamine-based Histone deacetylases-Lysine demethylase 1 dual binding inhibitors” (Bioorg Med Chem Lett, 2018).

Assays:
MCF7 [1] = experiment: Cytotoxic activity against human MCF7 cells assessed as reduction in cell viability at 4 uM after 24 hrs by MTT assay relative to control; assay type: functional
MCF7 [2] = experiment: Cytotoxic activity against human MCF7 cells assessed as reduction in cell viability at 16 uM after 24 hrs by MTT assay relative to control; assay type: functional
MCF7 [3] = experiment: Cytotoxic activity against human MCF7 cells assessed as reduction in cell viability at 70 uM after 24 hrs by MTT assay relative to control; assay type: functional
[4] = target: T1, Lysine-specific histone demethylase 1A/REST corepressor (Homo sapiens, UniProt O60341+Q9P2K3)
Description: (§1) Inhibition of human recombinant LSD1/CoREST3 expressed in Escherichia coli using monomethylatedH3meK4 peptide as substrate preincubated for 15 mins followed by substrate addition measured after 12 mins by fluorescence based assay

HDAC1/REST corepressor 3 [5] = target: T2, HDAC1/REST corepressor 3 (Homo sapiens, UniProt Q13547+Q9P2K3)
Description: (§2) Inhibition of HDAC1/CoREST3 in HEK293 whole cell extract using fluorescent acetylated histone peptide as substrate after 60 mins by fluorescence based assay

MCF7 [6] = experiment: cells; assay type: functional, cell-based; conditions: Homo sapiens, MCF7, 24 h
Description: Cytotoxic activity against human MCF7 cells after 24 hrs by MTT assay

[7] = target: T3, Histone deacetylase (Homo sapiens) (UniProt Q13547+O15379+Q9UBN7+Q92769+Q9UQL6+Q8WUI4+Q9BY41+Q96DB2+P56524+Q9UKV0+Q969S8); experiment: Inhibition of HDAC in human MCF7 cell nuclear extract using acetylated lysine as substrate at 70 uM after 1 hr by colorimetric analysis relative to control; assay type: protein assay
[8] = target: T1, Lysine-specific histone demethylase 1A/REST corepressor; remark: listed apart in the source
Description: as §1

HDAC1/REST corepressor 3 [9] = target: T2, HDAC1/REST corepressor 3; remark: listed apart in the source
Description: as §2

MCF7 [10] = experiment: Cytotoxic activity against human MCF7 cells assessed as reduction in cell viability at 35 uM after 24 hrs by MTT assay relative to control; assay type: functional
[11] = target: T3, Histone deacetylase (Homo sapiens); experiment: Inhibition of HDAC in human MCF7 cell nuclear extract using acetylated lysine as substrate at 17 uM after 1 hr by colorimetric analysis relative to control; assay type: protein assay

T2 sequence (Q13547 whole entry, other chains not shown): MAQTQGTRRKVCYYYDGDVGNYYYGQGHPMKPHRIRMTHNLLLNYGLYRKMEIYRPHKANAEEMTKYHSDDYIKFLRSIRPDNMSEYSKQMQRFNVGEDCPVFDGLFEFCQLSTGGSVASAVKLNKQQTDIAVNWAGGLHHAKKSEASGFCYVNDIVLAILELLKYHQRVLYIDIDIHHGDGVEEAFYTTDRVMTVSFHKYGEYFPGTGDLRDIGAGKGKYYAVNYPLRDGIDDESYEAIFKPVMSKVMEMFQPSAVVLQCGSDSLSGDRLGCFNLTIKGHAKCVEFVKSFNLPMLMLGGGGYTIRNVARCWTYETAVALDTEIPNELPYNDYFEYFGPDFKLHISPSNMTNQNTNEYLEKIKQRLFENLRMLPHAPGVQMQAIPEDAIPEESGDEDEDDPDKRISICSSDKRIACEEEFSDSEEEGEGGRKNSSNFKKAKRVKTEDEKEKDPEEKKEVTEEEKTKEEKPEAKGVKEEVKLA

SMILES	Activity (MCF7 [1]) [%]	Activity (MCF7 [2]) [%]	Activity (MCF7 [3]) [%]	IC50 [4]	Ki (HDAC1/REST corepressor 3 [5])	IC50 (MCF7 [6]) [µM]	inhibition [7] [%]	IC50 [8] [µM]	Ki (HDAC1/REST corepressor 3 [9]) [µM]	Activity (MCF7 [10]) [%]	inhibition [11] [%]
O=C(CCCCCCC(=O)Nc1ccccc1)NO [VORINOSTAT]	20.8	49.3	56.6	–	–	–	–	–	–	–	–
Cl.Cl.Cl.N[C@@H]1C[C@H]1c1ccc(NC(=O)CCC(=O)NCCCCCCNCCCCCCCCNCCCCCCNC(=O)c2ccc(NC(=O)CCCCCCC(=O)NO)cc2)cc1	–	–	–	Nd(Insoluble)	Nd(Insoluble)	–	–	–	–	–	–
Cl.Cl.N[C@@H]1C[C@H]1c1ccc(NC(=O)CCC(=O)NCCCNCCCNC(=O)c2ccc(NC(=O)CCCCCCC(=O)NO)cc2)cc1	–	–	52	–	–	60.2	35.8	2.4	0.0269	–	–
Cl.Cl.Cl.N[C@@H]1C[C@H]1c1ccc(NC(=O)CCC(=O)NCCCNCCCCNCCCNC(=O)c2ccc(NC(=O)CCCCCCC(=O)NO)cc2)cc1	16.3	–	68.6	–	–	39.6	–	3.85	0.0425	52.7	50.2
